From patent publication US8148388B2, “2,4 (4,6) pyrimidine derivatives” (Janssen Pharmaceutica, N.V., priority 2004, dated 2012)

Biological target: Yes (h) (Homo sapiens, UniProt P07947)
Experiment: Yes human kinase assay (glass-fiber filter)
Assay type: biochemical
Details: test concentration of 10^−6M; read-out: C11 score (inhibition of Yes human)
Method: (§1) In the glass-fiber filter technology the activity of the kinase of interest is measured using an appropriate substrate that is incubated with the aforementioned kinase protein in the presence of (^33P) radiolabeled ATP. (^33P) Phosphorylation of the substrate is subsequently measured as radioactivity bound on a glass fiber-filter.
(§2) All kinases are pre-diluted to a 10× working concentration prior to addition into the assay. The composition of the dilution buffer for each kinase is detailed below.
(§3) In a final reaction volume of 25 μl, Yes (h) (5-10 mU) is incubated with 8 mM MOPS pH 7.0, 0.2 mM EDTA, 0.1 mg/ml poly(Glu, Tyr) 4:1, 10 mM MgAcetate and [γ-^33P-ATP] (specific activity approx. 500 cpm/μmol, concentration as required). The reaction is initiated by the addition of the MgATP mix. After incubation for 40 minutes at room temperature, the reaction is stopped by the addition of 5 μl of a 3% phosphoric acid solution. 10 μl of the reaction is then spotted onto a Filtermat A and washed three times for 5 minutes in 75 mM phosphoric acid and once in methanol prior to drying and scintillation counting.

Chain of Yes (h) (P07947 whole entry): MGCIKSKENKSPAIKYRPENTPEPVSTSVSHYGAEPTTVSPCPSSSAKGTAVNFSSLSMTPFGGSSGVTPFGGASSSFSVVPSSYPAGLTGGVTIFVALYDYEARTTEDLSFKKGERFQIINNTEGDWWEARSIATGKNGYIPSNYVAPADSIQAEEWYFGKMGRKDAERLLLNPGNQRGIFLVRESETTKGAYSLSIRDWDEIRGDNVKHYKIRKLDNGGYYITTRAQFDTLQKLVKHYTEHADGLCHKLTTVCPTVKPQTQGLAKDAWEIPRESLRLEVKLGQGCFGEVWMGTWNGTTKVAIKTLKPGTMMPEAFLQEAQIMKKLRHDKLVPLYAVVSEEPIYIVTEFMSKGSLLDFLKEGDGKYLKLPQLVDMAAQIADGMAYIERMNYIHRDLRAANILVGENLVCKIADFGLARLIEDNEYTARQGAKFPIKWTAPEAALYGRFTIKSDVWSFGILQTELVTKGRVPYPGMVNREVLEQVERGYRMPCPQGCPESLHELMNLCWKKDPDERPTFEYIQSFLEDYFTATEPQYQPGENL

inhibition at 1 µM [%]	Compound
10 to 30	CC(C)C1NC(=O)c2cccc(c2)Nc2cc(ncn2)Nc2cccc(c2)CNC(=O)CNC1=O (stereo not shown) [Compound 60]
10 to 30	O=C1CNC(=O)CNC(=O)c2cccc(c2)Nc2cc(ncn2)Nc2cccc(c2)CN1 [Compound 61]

Biological target: Flt3 (h) (Homo sapiens, UniProt P36888)
Sequence (P36888 27-993): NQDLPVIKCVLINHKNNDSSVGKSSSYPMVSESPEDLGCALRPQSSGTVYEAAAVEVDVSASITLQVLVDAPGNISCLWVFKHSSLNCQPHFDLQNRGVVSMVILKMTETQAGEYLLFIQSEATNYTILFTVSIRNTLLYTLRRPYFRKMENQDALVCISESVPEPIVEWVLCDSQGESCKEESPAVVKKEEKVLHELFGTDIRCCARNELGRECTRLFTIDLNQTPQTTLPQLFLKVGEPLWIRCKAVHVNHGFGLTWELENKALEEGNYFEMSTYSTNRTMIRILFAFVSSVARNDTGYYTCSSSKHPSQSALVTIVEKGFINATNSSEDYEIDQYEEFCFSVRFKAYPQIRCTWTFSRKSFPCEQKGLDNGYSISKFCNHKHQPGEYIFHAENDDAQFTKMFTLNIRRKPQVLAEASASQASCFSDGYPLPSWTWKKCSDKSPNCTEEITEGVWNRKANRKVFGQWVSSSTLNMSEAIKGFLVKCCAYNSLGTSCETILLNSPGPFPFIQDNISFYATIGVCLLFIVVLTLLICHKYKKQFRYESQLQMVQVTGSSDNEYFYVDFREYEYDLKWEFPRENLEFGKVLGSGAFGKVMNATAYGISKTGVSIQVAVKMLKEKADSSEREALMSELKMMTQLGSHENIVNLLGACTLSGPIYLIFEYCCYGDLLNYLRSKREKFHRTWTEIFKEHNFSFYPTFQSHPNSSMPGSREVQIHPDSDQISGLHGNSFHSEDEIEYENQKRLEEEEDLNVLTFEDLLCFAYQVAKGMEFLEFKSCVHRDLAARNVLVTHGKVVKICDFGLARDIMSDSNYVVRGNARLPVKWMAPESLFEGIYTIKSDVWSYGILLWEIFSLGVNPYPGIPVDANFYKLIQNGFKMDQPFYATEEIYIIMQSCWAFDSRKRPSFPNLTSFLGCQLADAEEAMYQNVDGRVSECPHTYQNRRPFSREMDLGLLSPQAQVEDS
Experiment: Flt3 human kinase assay (glass-fiber filter)
Assay type: biochemical
Details: test concentration of 10^−6M; read-out: C6 score (inhibition of Flt3 human)
Method: (§4) The in vitro inhibition of a panel of kinases was assessed using either the glass-fiber filter technology as described by Davies, S. P. et al., Biochem J. (2000), 351; p. 95-105.
as §1, §2
as §3, with “Flt3” for “Yes”, “50 μM […],” for “0.1 mg/ml poly(Glu, Tyr) 4:1,”, “cpm/pmol,” for “cpm/μmol,”, “P30 filtermat” for “Filtermat A”

inhibition at 1 µM [%]	Compound
30 to 60	O=C1CCCCCCNC(=O)c2cccc(c2)Nc2cc(ncn2)Nc2cccc(c2)CN1 [Compound 57, 2,4,6,8,15,23-hexaazatetracyclo[23.3.1.1~3,7~.1~9,13~]hentriaconta-1(29),3,5,7(31),9,11,13(30),25,27-nonaene-14,22-dione]

Biological target: Fms (h) (Homo sapiens, UniProt P07333)
Sequence (P07333 20-972): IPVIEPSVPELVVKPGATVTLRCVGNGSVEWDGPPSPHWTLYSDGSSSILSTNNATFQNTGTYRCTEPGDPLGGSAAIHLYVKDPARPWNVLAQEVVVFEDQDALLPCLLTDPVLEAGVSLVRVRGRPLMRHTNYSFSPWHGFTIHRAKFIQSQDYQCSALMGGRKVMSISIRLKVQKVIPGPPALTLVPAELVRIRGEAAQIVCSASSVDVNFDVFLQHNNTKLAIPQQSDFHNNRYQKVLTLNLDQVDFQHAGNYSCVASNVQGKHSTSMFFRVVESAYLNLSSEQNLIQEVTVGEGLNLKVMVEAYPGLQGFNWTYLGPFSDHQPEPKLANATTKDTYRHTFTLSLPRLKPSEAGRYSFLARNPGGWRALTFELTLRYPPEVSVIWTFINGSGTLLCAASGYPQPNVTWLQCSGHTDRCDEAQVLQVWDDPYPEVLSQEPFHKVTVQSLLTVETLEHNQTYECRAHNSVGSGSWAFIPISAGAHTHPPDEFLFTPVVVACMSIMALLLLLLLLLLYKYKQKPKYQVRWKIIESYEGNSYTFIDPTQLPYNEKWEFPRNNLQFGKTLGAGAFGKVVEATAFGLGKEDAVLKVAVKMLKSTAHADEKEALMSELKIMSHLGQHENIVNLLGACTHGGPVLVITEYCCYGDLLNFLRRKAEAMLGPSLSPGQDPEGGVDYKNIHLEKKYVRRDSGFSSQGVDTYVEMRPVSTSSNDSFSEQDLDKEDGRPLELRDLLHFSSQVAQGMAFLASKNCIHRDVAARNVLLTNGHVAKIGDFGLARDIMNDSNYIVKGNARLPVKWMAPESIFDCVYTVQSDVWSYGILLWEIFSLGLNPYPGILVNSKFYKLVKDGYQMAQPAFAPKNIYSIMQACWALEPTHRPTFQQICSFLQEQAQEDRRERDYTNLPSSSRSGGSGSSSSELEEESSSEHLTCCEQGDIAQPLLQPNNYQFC
Experiment: Fms human kinase assay (glass-fiber filter)
Assay type: biochemical
Details: test concentration of 10^−6M; read-out: C7 score (inhibition of Fms human)
Method: as §4, §1, §2
as §3, with “Fms” for “Yes”, “250 μM […],” for “0.1 mg/ml poly(Glu, Tyr) 4:1,”, “cpm/pmol,” for “cpm/μmol,”, “P30 filtermat” for “Filtermat A”

inhibition at 1 µM [%]	Compound
10 to 30	CC(C)C1NC(=O)c2cccc(c2)Nc2cc(ncn2)Nc2cccc(c2)CNC(=O)CNC1=O (stereo not shown) [Compound 60]
60 to 80	O=C1CNC(=O)CNC(=O)c2cccc(c2)Nc2cc(ncn2)Nc2cccc(c2)CN1 [Compound 61]

Biological target: T1, EGFR-kinase domain (Homo sapiens, UniProt P00533)
T1 construct: 0.5 μg EGFR-kinase domain/well
T1 sequence (P00533 712-979 limits assumed): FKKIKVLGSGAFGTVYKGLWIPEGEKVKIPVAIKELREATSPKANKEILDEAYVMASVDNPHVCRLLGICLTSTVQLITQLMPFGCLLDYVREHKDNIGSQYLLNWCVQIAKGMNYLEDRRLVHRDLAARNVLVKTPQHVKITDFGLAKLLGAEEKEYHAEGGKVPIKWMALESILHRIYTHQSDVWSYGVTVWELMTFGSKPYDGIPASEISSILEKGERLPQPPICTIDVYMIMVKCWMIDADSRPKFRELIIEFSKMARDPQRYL
Experiment: In vitro inhibition of EGFR (Flash Plate assay)
Assay type: biochemical
Details: full dose response 1.10^−6M to 1.10^−10M, read-out: C12 EGFR flash Score
Method: The in vitro inhibition of EGFR was assessed using either the Flash Plate technology or the glass-fiber filter technology as described by Davies, S. P. et al., Biochem J. (2000), 351; p. 95-105. The Flash Plate technology is generally described by B. A. Brown et al. in High Throughput Screening (1997), p. 317-328. Editor(s): Devlin, John P. Publisher: Dekker, New York, N.Y.
In the Flash Plate EGFR kinase reaction assay, a kinase substrate consisting of biotinylated poly(L-glutamic acid-L-tyrosine) (poly(GT)biotin), is incubated with the aforementioned protein in the presence of (^33P) radiolabeled ATP. (^33P) phosphorylation of the substrate is subsequently measured as light energy emitted using a streptavidin-coated Flash Plate (PerkinElmer Life Sciences) by trapping and quantifying the binding of the biotin tagged and radiolabeled substrate.
The EGFR kinase reaction is performed at 30° C. for 60 minutes in a 96-well microtiter FlashPlate (PerkinElmer Life Sciences). For each of the tested compounds a full dose response 1.10^−6M to 1.10^−10M has been performed. IRESSA® and Tarceva™ (erlotinib) were used as reference compounds. The 100 μl reaction volume contains 54.5 mM TrisHCl pH 8.0, 10 mM MgCl2, 100 μM Na3VO4, 5.0 μM unlabeled ATP, 1 mM DTT, 0.009% BSA, 0.8 μCi AT^33P, 0.35 μg/well poly(GT)biotin and 0.5 μg EGFR-kinase domain/well.
The reaction is stopped by aspirating the reaction mixture and washing the plate 3× with 200 μl wash/stop buffer (PBS+100 mM EDTA). After the final wash step 200 μl of wash/stop buffer was added to each well and the amount of phosphorylated (^33P) Poly(GT)biotin determined by counting (30 sec/well) in a microtiterplate scintillation counter.

Compound	IC50 [nM]
COc1ccc2cc1OCCNC(=O)C(CCSC)NC(=O)COc1cccc(c1)Nc1cc(ncn1)N2 (stereo not shown) [Compound 173]	1000 to 10000
COCC1NC(=O)COc2cccc(c2)Nc2cc(ncn2)Nc2cccc(c2)OCCCCCNC1=O (stereo not shown) [Compound 179]	1000 to 10000
O=C1COc2cccc(c2)Nc2cc(ncn2)Nc2cccc(c2)OCCCCCNC(=O)C(Cc2cccnc2)N1 (stereo not shown) [Compound 180]	1000 to 10000
COc1ccc2cc1OCCNC(=O)C1CN(CCC1O)Cc1cc(ccc1Cl)Nc1cc(ncn1)N2 (stereo not shown) [Compound 182]	1000 to 10000
CCN1CC(=O)NCCOc2cc(ccc2OC)Nc2cc(ncn2)Nc2ccc(Cl)c(c2)C1 [Compound 183]	1000 to 10000
CN1Cc2cccc(c2)Nc2cc(ncn2)Nc2ccccc2OCCCCCNC(=O)CCN2CCC1CC2 [Compound 186]	1000 to 10000
CCN1CC(=O)NCCCCCOc2ccccc2Nc2cc(ncn2)Nc2cccc(c2)C1 [Compound 190]	1000 to 10000
O=C1CCN(CCN2CCOCC2)Cc2cccc(c2)Nc2cc(ncn2)Nc2cccc(c2)OCCCCN1 [Compound 195]	1000 to 10000
CN1Cc2cccc(c2)Nc2cc(ncn2)Nc2cccc(c2)OCCCCNC(=O)CCN2CCC1CC2 [Compound 196]	1000 to 10000

The next lines start with the values.

IC50 [nM]	Compound
1000 to 10000	COc1ccc2cc1OCCNC(=O)C1CCCCN1Cc1cc(ccc1Cl)Nc1cc(ncn1)N2 (racemic) [Compound 145]
1000 to 10000	COc1ccc2cc1OCCNC(=O)CCCN(C)Cc1cc(ccc1Cl)Nc1cc(ncn1)N2 [Compound 111]
1000 to 10000	CCN1CCC(=O)NCCOc2cc(ccc2OC)Nc2cc(ncn2)Nc2ccc(Cl)c(c2)C1 [Compound 113]
1000 to 10000	COc1ccc2cc1OCCNC(=O)CCN1CCC(CC1)N(C)Cc1cc(ccc1Cl)Nc1cc(ncn1)N2 [Compound 127]
1000 to 10000	CCN1CCNC(=O)C(CC2CCCCC2)NC(=O)COc2ccc(cc2)Nc2cc(ncn2)Nc2cccc(c2)C1 (stereo not shown) [Compound 135]
< 1000	CCN1CCNC(=O)C2CN(CCO2)C(=O)COc2ccc(cc2)Nc2cc(ncn2)Nc2cccc(c2)C1 (stereo not shown) [Compound 136]
1000 to 10000	COc1ccc2cc1OCCNC(=O)C1CCCN(C1)C(=O)COc1ccc(cc1)Nc1cc(ncn1)N2 (stereo not shown) [Compound 140]
1000 to 10000	COc1ccc2cc1OCCNC(=O)CC(CC(C)C)NC(=O)COc1ccc(cc1)Nc1cc(ncn1)N2 (stereo not shown) [Compound 141]
